This note sets out measurements from article PMC13205134, “Design, synthesis, and biological properties exhibited by 1,2,3-triazole based Grp94-selective inhibitors” (European journal of medicinal chemistry, 2025).

Assay [1] relates to Grp94. Nature of the assay: Competitive binding fluorescence polarization (FP) assay, Grp94. Conditions: selectivity over Hsp90α; n.s. = non-selective. Here is the method:
The Fluorescence Polarization Assay (FP) was performed in 96-well flat-bottom plates (Santa Cruz Biotechnology) with a final volume of 100 μL per well. […] Each well contained 10 nM of Hsp90α or Grp94 (Enzo Biochem Inc.) and 6 nM of FITC-GDA (fluorescent tracer, stock in DMSO). Compounds were tested in triplicate at final concentrations of 100 μM, 10 μM, 1 μM, 0.1 μM and 0.01 μM with each final concentration containing 1 % DMSO. Each plate included control wells containing: (i) buffer only (background polarization), (ii) protein plus tracer (maximum polarization control), and (iii) tracer only (minimum polarization control). Plates were incubated on a rocker at 4 °C for 24 h.

The target in assay [2] is Hsp90α (Homo sapiens, UniProt P07900). Kind of assay: Competitive binding fluorescence polarization (FP) assay, Hsp90α. The settings on record: FITC-GDA tracer, mean of triplicates ± SD, read-out: Apparent Kd Hsp90α. Here is the method: The Fluorescence Polarization Assay (FP) was performed in 96-well flat-bottom plates (Santa Cruz Biotechnology) with a final volume of 100 μL per well. The assay buffer consisted of 20 mM HEPES, 50 mM KCl, 10.5 mM MgCl2, 20 mM Na2MoO4, 0.01 % NP-40 detergent (NP-40), and pH 7.3 with fresh 2 mM dithiothreitol (DTT) and 0.1 mg/mL bovine γ-globulin (BGG). Each well contained 10 nM of Hsp90α or Grp94 (Enzo Biochem Inc.) and 6 nM of FITC-GDA (fluorescent tracer, stock in DMSO). Compounds were tested in triplicate at final concentrations of 100 μM, 10 μM, 1 μM, 0.1 μM and 0.01 μM with each final concentration containing 1 % DMSO. Each plate included control wells containing: (i) buffer only (background polarization), (ii) protein plus tracer (maximum polarization control), and (iii) tracer only (minimum polarization control). Plates were incubated on a rocker at 4 °C for 24 h. Fluorescence polarization (mP units) was measured at 37 °C using excitation and emission wavelengths of 485 and 528 nm, respectively. Apparent Kd values were determined via calculations from the polarization data obtained at which the tracer was displaced by 50 % by the compounds of interest.
[I50] = concentration of free inhibitor at 50% inhibition, [L50] = concentration of free fluorescence labeled ligand molecule at 50% inhibition, [P0] = concentration of free protein at 0% inhibition, K = dissociation constant of the protein−ligand complex.^4

Consider `COC(=O)c1c(O)cc(O)c(Cl)c1CCn1nncc1Cc1ccc(Cl)cc1` [Compound 32, methyl 3-chloro-2-(2-(5-(4-chlorobenzyl)-1H-1,2,3-triazol-1-yl)ethyl)-4,6-dihydroxybenzoate], for which the “Fold selective for Grp94” value in assay [1] is recorded as 9 fold. The Kd in assay [2] was 5.7 ± 0.5 µM.

For the compound `COC(=O)c1c(O)cc(O)c(Cl)c1CCn1nncc1Cc1ccc(Br)cc1` [Compound 33, methyl 2-(2-(5-(4-bromobenzyl)-1H-1,2,3-triazol-1-yl)ethyl)-3-chloro-4,6-dihydroxybenzoate], in assay [1], the “Fold selective for Grp94” value was found to be 5 fold. In addition, the Kd in assay [2] was determined as 3.38 ± 0.33 µM.

With `COC(=O)c1c(O)cc(O)c(Cl)c1CCn1nnnc1Cc1ccccc1` [Compound 20, methyl 2-(2-(5-benzyl-1H-tetrazol-1-yl)ethyl)-3-chloro-4,6-dihydroxybenzoate], the “Fold selective for Grp94” value in assay [1] is listed as 3 fold. Also, in assay [2], the Kd was determined as 1.63 ± 0.88 µM.

On to `CCc1ccccc1Cc1cnnn1CCc1c(Cl)c(O)cc(O)c1C(=O)OC` [Compound 46, methyl 3-chloro-2-(2-(5-(2-ethylbenzyl)-1H-1,2,3-triazol-1-yl)ethyl)-4,6-dihydroxybenzoate], for which, in assay [1], the “Fold selective for Grp94” value was determined as 12 fold. In assay [2], the Kd is 9.22 ± 0.48 µM.

Regarding `CCc1ccc(Cc2cnnn2CCc2c(Cl)c(O)cc(O)c2C(=O)OC)cc1` [Compound 35, methyl 3-chloro-2-(2-(5-(4-ethylbenzyl)-1H-1,2,3-triazol-1-yl)ethyl)-4,6-dihydroxybenzoate], the “Fold selective for Grp94” value in assay [1] is “n.s”. Further, in assay [2], the Kd is 0.81 ± 0.06 µM.

Consider `COC(=O)c1c(O)cc(O)c(Cl)c1CCn1nncc1Cc1ccc(C)cc1` [Compound 34, methyl 3-chloro-4,6-dihydroxy-2-(2-(5-(4-methylbenzyl)-1H-1,2,3-triazol-1-yl)ethyl)benzoate], for which, in assay [1], the “Fold selective for Grp94” value came out at 9 fold. The Kd in assay [2] came out at 6.03 ± 0.37 µM.

In the case of `COC(=O)c1c(O)cc(O)c(Cl)c1CCn1nncc1Cc1ccccc1CCC(F)(F)F` [Compound 50, methyl 3-chloro-4,6-dihydroxy-2-(2-(5-(2-(3,3,3-trifluoropropyl)benzyl)-1H-1,2,3-triazol-1-yl)ethyl)benzoate], in assay [1], the “Fold selective for Grp94” value came to 70 fold. For the same compound, the Kd in assay [2] is 4.32 ± 0.39 µM.

In the case of `COC(=O)c1c(O)cc(O)c(Cl)c1CCn1nncc1Cc1ccccc1` [Compound 14, methyl 2-(2-(5-benzyl-1H-1,2,3-triazol-1-yl)ethyl)-3-chloro-4,6-dihydroxybenzoate], the “Fold selective for Grp94” value in assay [1] is on record as 8 fold. The Kd in assay [2] turned out to be 5.24 ± 0.24 µM.

As for `COC(=O)c1c(O)cc(O)c(Cl)c1CCn1nncc1Cc1cccc(Cl)c1` [Compound 38, methyl 3-chloro-2-(2-(5-(3-chlorobenzyl)-1H-1,2,3-triazol-1-yl)ethyl)-4,6-dihydroxybenzoate], the “Fold selective for Grp94” value in assay [1] came out at 3 fold. Further, the Kd in assay [2] came out at 6.33 ± 1.33 µM.

In the case of `COC(=O)c1c(O)cc(O)c(Cl)c1CCc1cnnn1Cc1ccccc1` [Compound 10, methyl 2-(2-(1-benzyl-1H-1,2,3-triazol-5-yl)ethyl)-3-chloro-4,6-dihydroxybenzoate], the “Fold selective for Grp94” value in assay [1] was “n.s”. Further, in assay [2], the Kd was 0.62 ± 0.04 µM.

Take `COC(=O)c1c(O)cc(O)c(Cl)c1CCn1nncc1Cc1ccc(Cl)c(Cl)c1` [Compound 37, methyl 3-chloro-2-(2-(5-(3,4-dichlorobenzyl)-1H-1,2,3-triazol-1-yl)ethyl)-4,6-dihydroxybenzoate]: the “Fold selective for Grp94” value in assay [1] is reported as 5 fold. In addition, the Kd in assay [2] turned out to be 6.42 ± 0.45 µM.

For the compound `CCOc1ccccc1Cc1cnnn1CCc1c(Cl)c(O)cc(O)c1C(=O)OC` [Compound 40, methyl 3-chloro-2-(2-(5-(2-ethoxybenzyl)-1H-1,2,3-triazol-1-yl)ethyl)-4,6-dihydroxybenzoate], in assay [1], the “Fold selective for Grp94” value was 30 fold. In assay [2], the Kd was determined as 8.92 ± 0.16 µM.

Take `COC(=O)c1c(O)cc(O)c(Cl)c1CCn1nncc1Cc1ccccc1Cl` [Compound 39, methyl 3-chloro-2-(2-(5-(2-chlorobenzyl)-1H-1,2,3-triazol-1-yl)ethyl)-4,6-dihydroxybenzoate]: in assay [1], the “Fold selective for Grp94” value is 2 fold. Moreover, the Kd in assay [2] was determined as 8.32 ± 2.55 µM.

As to `CCSc1ccccc1Cc1cnnn1CCc1c(Cl)c(O)cc(O)c1C(=O)OC` [Compound 43, methyl 3-chloro-2-(2-(5-(2-(ethylthio)benzyl)-1H-1,2,3-triazol-1-yl)ethyl)-4,6-dihydroxybenzoate], in assay [1], the “Fold selective for Grp94” value stood at 43 fold. In addition, the Kd in assay [2] came out at 8.53 ± 1.05 µM.

With `COC(=O)c1c(O)cc(O)c(Cl)c1CCn1cc(Cc2ccccc2)nn1` [Compound 16, methyl 2-(2-(4-benzyl-1H-1,2,3-triazol-1-yl)ethyl)-3-chloro-4,6-dihydroxybenzoate], the “Fold selective for Grp94” value in assay [1] is reported as “n.s”. Also, in assay [2], the Kd was 6.79 ± 0.1 µM.

On to `CCCSc1ccccc1Cc1cnnn1CCc1c(Cl)c(O)cc(O)c1C(=O)OC` [Compound 44, methyl 3-chloro-4,6-dihydroxy-2-(2-(5-(2-(propylthio)benzyl)-1H-1,2,3-triazol-1-yl)ethyl)benzoate], for which, in assay [1], the “Fold selective for Grp94” value amounted to 78 fold. Besides, in assay [2], the Kd amounted to 4.39 ± 0.17 µM.

`CCCOc1ccccc1Cc1cnnn1CCc1c(Cl)c(O)cc(O)c1C(=O)OC` [Compound 42, methyl 3-chloro-4,6-dihydroxy-2-(2-(5-(2-propoxybenzyl)-1H-1,2,3-triazol-1-yl)ethyl)benzoate]: in assay [1], the “Fold selective for Grp94” value was found to be 30 fold. Also, in assay [2], the Kd is 2.58 ± 0.36 µM.

On to `COC(=O)c1c(O)cc(O)c(Cl)c1CCn1nncc1Cc1ccc(OC)cc1` [Compound 36, methyl 3-chloro-4,6-dihydroxy-2-(2-(5-(4-methoxybenzyl)-1H-1,2,3-triazol-1-yl)ethyl)benzoate], for which, in assay [1], the “Fold selective for Grp94” value was found to be 7 fold. In assay [2], the Kd was 41.5 ± 7.6 µM.

`COC(=O)c1c(O)cc(O)c(Cl)c1CCn1nncc1Cc1ccccc1CC(C)C` [Compound 49, methyl 3-chloro-4,6-dihydroxy-2-(2-(5-(2-isobutylbenzyl)-1H-1,2,3-triazol-1-yl)ethyl)benzoate]: in assay [1], the “Fold selective for Grp94” value amounted to 6 fold. Also, the Kd in assay [2] came to 0.92 ± 0.05 µM.

In the case of `COC(=O)c1c(O)cc(O)c(Cl)c1CCn1nncc1Cc1ccccc1SC(C)C` [Compound 45, methyl 3-chloro-4,6-dihydroxy-2-(2-(5-(2-(isopropylthio)benzyl)-1H-1,2,3-triazol-1-yl)ethyl)benzoate], the “Fold selective for Grp94” value in assay [1] is recorded as 5 fold. The Kd in assay [2] was 2.06 ± 0.87 µM.

Take `COC(=O)c1c(O)cc(O)c(Cl)c1CCn1nncc1Cc1ccc(F)cc1` [Compound 31, methyl 3-chloro-2-(2-(5-(4-fluorobenzyl)-1H-1,2,3-triazol-1-yl)ethyl)-4,6-dihydroxybenzoate]: the “Fold selective for Grp94” value in assay [1] is listed as 2 fold. The Kd in assay [2] was 4.72 ± 0.44 µM.

In the case of `CCCCc1ccccc1Cc1cnnn1CCc1c(Cl)c(O)cc(O)c1C(=O)OC` [Compound 48, methyl 2-(2-(5-(2-butylbenzyl)-1H-1,2,3-triazol-1-yl)ethyl)-3-chloro-4,6-dihydroxybenzoate], the “Fold selective for Grp94” value in assay [1] was 78 fold. Besides, the Kd in assay [2] stood at 6.72 ± 0.15 µM.

As for `CCOc1cc(Cl)ccc1Cc1cnnn1CCc1c(Cl)c(O)cc(O)c1C(=O)OC` [Compound 41, methyl 3-chloro-2-(2-(5-(4-chloro-2-ethoxybenzyl)-1H-1,2,3-triazol-1-yl)ethyl)-4,6-dihydroxybenzoate], the “Fold selective for Grp94” value in assay [1] is on record as 12 fold. For the same compound, the Kd in assay [2] came to 8.9 ± 0.21 µM.
